The values below come from patent US20240270762A1, “PENICILLIN-BINDING PROTEIN INHIBITORS” (priority 2021, published 2024).

Each structure is given as a SMILES string. ≈ marks a conversion by molar mass, not a printed value. Bounds are passed on as bounds.

For one assay, the target named is T1, A. baumannii PBP1a (Acinetobacter baumannii, UniProt A0ABX6CK30).
T1 sequence (A0ABX6CK30 1-851): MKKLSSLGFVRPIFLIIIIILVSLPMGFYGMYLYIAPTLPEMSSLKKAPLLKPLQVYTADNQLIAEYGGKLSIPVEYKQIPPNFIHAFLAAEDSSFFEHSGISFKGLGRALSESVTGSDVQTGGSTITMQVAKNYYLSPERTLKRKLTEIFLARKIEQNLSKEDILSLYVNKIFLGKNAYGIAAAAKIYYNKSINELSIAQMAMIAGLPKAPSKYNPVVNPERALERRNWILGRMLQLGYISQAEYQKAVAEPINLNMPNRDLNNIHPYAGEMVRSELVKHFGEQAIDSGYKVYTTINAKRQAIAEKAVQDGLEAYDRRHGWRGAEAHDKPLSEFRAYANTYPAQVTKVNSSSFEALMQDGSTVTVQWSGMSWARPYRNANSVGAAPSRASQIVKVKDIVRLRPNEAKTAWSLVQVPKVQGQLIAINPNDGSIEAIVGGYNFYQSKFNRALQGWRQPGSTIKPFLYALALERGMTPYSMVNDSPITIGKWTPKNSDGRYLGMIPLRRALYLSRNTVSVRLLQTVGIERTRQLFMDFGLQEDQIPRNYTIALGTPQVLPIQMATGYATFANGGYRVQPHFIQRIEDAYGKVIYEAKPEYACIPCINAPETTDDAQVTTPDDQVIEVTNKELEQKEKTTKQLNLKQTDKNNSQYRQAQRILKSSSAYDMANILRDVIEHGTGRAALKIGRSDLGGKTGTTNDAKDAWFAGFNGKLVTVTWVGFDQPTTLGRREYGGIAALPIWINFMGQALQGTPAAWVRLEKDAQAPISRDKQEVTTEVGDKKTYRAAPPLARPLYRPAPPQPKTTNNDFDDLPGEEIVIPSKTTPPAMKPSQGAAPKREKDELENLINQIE
In words: Bocillin-FL competition binding via gel filtration, A. baumannii PBP1a. Conditions: competition binding assay using Bocillin-FL via gel filtration; read-out: A. baumannii PBP1a Potency. An outline of the steps:
(§1)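 Enzyme was pre-incubated with rising inhibitor concentrations, then Bocillin-FL was added and incubated 15 minutes more. Bound probe was separated by gel filtration and fluorescence read. EC50 came from fitting fraction of PBP labelled versus inhibitor concentration to a Hill equation with ymin, ymax and n.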

Another assay relates to A. baumannii CDC-0036. As to the kind of experiment: microbe, parasite or virus in culture. It counts as cell-based. Conditions: Acinetobacter baumannii, CDC0036, read-out: MIC, A. baumannii CDC-0036.
Another assay has as its system P. aeruginosa ATCC 27853. As to the kind of experiment: microbe, parasite or virus in culture. It counts as cell-based. Conditions: Pseudomonas aeruginosa, ATCC27853, read-out: Minimum inhibitory concentration, P. aeruginosa ATCC 27853.
In the next assay the test system is P. aeruginosa ATCC 35151. As to the kind of experiment: microbe, parasite or virus in culture. As to conditions: Pseudomonas aeruginosa, ATCC35151, read-out: Minimum inhibitory concentration, P. aeruginosa ATCC 35151. It counts as cell-based.
The subject of assay [1] is B. humptydooensis ATCC BAA-2767. As to the kind of experiment: microbe, parasite or virus in culture. It counts as cell-based. As to conditions: Burkholderia humptydooensis, ATCCBAA2767, read-out: Minimum inhibitory concentration (MIC), B. humptydooensis ATCC BAA-2767.
In another assay the test system is A. baumannii ATCC 19606. As to the kind of experiment: microbe, parasite or virus in culture. It counts as cell-based. Conditions: Acinetobacter baumannii, ATCC19606, read-out: MIC, A. baumannii ATCC 19606.
The target of the next assay is A. baumannii PBP2 (Acinetobacter baumannii, UniProt D0C8Z9). As to the kind of experiment: Bocillin-FL competition binding via gel filtration, A. baumannii PBP2. The procedure, abridged: as §1
A. baumannii PBP2, sequence (D0C8Z9 whole entry): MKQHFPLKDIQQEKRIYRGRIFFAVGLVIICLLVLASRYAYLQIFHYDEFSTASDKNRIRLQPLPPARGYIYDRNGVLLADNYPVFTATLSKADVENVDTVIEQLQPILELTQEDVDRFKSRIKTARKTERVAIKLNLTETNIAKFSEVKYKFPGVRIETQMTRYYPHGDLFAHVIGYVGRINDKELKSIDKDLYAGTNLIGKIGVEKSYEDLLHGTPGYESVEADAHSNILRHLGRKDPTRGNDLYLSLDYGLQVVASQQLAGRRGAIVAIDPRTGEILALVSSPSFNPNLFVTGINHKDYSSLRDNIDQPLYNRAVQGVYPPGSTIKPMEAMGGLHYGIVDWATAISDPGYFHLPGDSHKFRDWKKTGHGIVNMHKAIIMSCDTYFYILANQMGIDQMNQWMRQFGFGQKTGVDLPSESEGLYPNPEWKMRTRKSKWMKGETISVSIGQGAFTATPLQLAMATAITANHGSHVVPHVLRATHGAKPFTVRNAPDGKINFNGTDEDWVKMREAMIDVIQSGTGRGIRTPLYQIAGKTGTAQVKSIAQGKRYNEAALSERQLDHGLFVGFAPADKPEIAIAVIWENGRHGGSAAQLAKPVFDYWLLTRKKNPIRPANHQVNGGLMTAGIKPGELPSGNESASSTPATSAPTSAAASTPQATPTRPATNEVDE
For another assay, the system named is A. baumannii CDC-0033. In words: microbe, parasite or virus in culture. As to conditions: Acinetobacter baumannii, CDC0033, read-out: MIC, A. baumannii CDC-0033. It counts as cell-based.
Another assay deals with A. baumannii CDC-0045. In words: microbe, parasite or virus in culture. It counts as cell-based. As to conditions: Acinetobacter baumannii, CDC0045, read-out: MIC, A. baumannii CDC-0045.

Take `O=C(O)c1c(F)ccc2c1OB(O)[C@@H](NC(=O)[C@H](NC(=O)N1CCN(C3CCN(C(=O)c4cc(F)c(F)c(O)c4F)CC3)C1=O)c1cc(F)c(O)c(O)c1Cl)C2` (single isomer, unassigned) [Example 441]: the EC50 at A. baumannii PBP1a and on A. baumannii PBP2 was less than 10 µM throughout. In addition, the MIC in the assay with A. baumannii CDC-0036 was less than 1 µg/mL; in the assay with P. aeruginosa ATCC 27853 it was 2 to 4 µg/mL (≈ 2.46 to 4.93 µM); in the assay with P. aeruginosa ATCC 35151, less than 1 µg/mL; in assay [1], less than 1 µg/mL; in the assay on A. baumannii ATCC 19606, less than 1 µg/mL; with A. baumannii CDC-0033 it was less than 1 µg/mL. For the same compound, the MIC with A. baumannii CDC-0045 is less than 1 µg/mL.

`O=C(O)c1c(F)ccc2c1OB(O)[C@@H](NC(=O)[C@H](NC(=O)N1CCN(C3CCN(C(=O)c4cc(O)cc(O)c4)CC3)C1=O)c1cc(F)c(O)c(O)c1Cl)C2` (single isomer, unassigned) [Example 442]: the EC50 on A. baumannii PBP1a and at A. baumannii PBP2 was less than 10 µM throughout. The MIC (in the assay with A. baumannii CDC-0036; in the assay on P. aeruginosa ATCC 27853; with P. aeruginosa ATCC 35151; in assay [1]; in the assay with A. baumannii ATCC 19606; in the assay on A. baumannii CDC-0033) was less than 1 µg/mL throughout. Also, in the assay on A. baumannii CDC-0045, the MIC was less than 1 µg/mL.

For the compound `O=C(O)c1c(F)ccc2c1OB(O)[C@@H](NC(=O)[C@H](NC(=O)N1CCN(C3CCN(C(=O)c4cc(O)c(F)c(O)c4)CC3)C1=O)c1cc(F)c(O)c(O)c1Cl)C2` (single isomer, unassigned) [Example 443], the EC50 at A. baumannii PBP1a and on A. baumannii PBP2 was less than 10 µM throughout. Besides, the MIC (with A. baumannii CDC-0036; with P. aeruginosa ATCC 27853; in the assay with P. aeruginosa ATCC 35151; in assay [1]; in the assay with A. baumannii ATCC 19606; in the assay on A. baumannii CDC-0033) was less than 1 µg/mL in each case. In the assay on A. baumannii CDC-0045, the MIC was less than 1 µg/mL.

As for `O=C(O)c1c(F)ccc2c1OB(O)[C@@H](NC(=O)[C@H](NC(=O)N1CCN(C3CCN(C(=O)c4cc(O)c(F)c(O)c4F)CC3)C1=O)c1cc(F)c(O)c(O)c1Cl)C2` (single isomer, unassigned) [Example 444], the EC50 at A. baumannii PBP1a and at A. baumannii PBP2 was less than 10 µM in each case. Also, the MIC (in the assay on A. baumannii CDC-0036; in the assay with P. aeruginosa ATCC 27853; with P. aeruginosa ATCC 35151; in assay [1]; in the assay on A. baumannii ATCC 19606; in the assay on A. baumannii CDC-0033) was less than 1 µg/mL in each case. In addition, in the assay with A. baumannii CDC-0045, the MIC was less than 1 µg/mL.

In the case of `O=C(O)c1c(F)ccc2c1OB(O)[C@@H](NC(=O)[C@H](NC(=O)N1CCN(C3CCN(C(=O)Nc4cccc(O)c4F)CC3)C1=O)c1cc(F)c(O)c(O)c1Cl)C2` (single isomer, unassigned) [Example 446], the EC50 on A. baumannii PBP1a was 10 to 50 µM; on A. baumannii PBP2, less than 10 µM. Besides, the MIC (in the assay on A. baumannii CDC-0036; with P. aeruginosa ATCC 27853; in the assay with P. aeruginosa ATCC 35151; in assay [1]; in the assay with A. baumannii ATCC 19606; in the assay with A. baumannii CDC-0033) was less than 1 µg/mL in each case. Further, the MIC with A. baumannii CDC-0045 is less than 1 µg/mL.

As to `O=C(O)c1c(F)ccc2c1OB(O)[C@@H](NC(=O)[C@H](NC(=O)N1CCN(C3CCN(C(=O)Nc4cc(O)ccc4Cl)CC3)C1=O)c1cc(F)c(O)c(O)c1Cl)C2` (single isomer, unassigned) [Example 448], the EC50 at A. baumannii PBP1a and on A. baumannii PBP2 was less than 10 µM each time. Besides, the MIC (with A. baumannii CDC-0036; in the assay on P. aeruginosa ATCC 27853; with P. aeruginosa ATCC 35151; in [1]; with A. baumannii ATCC 19606; in the assay with A. baumannii CDC-0033) was less than 1 µg/mL each time. Also, in the assay on A. baumannii CDC-0045, the MIC was less than 1 µg/mL.

Regarding `O=C(O)c1c(F)ccc2c1OB(O)[C@@H](NC(=O)[C@H](NC(=O)N1CCN(C3CCN(C(=O)Nc4ccc(F)c(O)c4)CC3)C1=O)c1cc(F)c(O)c(O)c1Cl)C2` (single isomer, unassigned) [Example 449], the EC50 on A. baumannii PBP1a and on A. baumannii PBP2 was less than 10 µM each time. Further, the MIC in the assay on A. baumannii CDC-0036 was less than 1 µg/mL; with P. aeruginosa ATCC 27853, less than 1 µg/mL; in the assay with P. aeruginosa ATCC 35151 it was less than 1 µg/mL; in [1] it was 2 to 4 µg/mL (≈ 2.53 to 5.06 µM); with A. baumannii ATCC 19606, less than 1 µg/mL; in the assay on A. baumannii CDC-0033 it was less than 1 µg/mL. Moreover, the MIC in the assay on A. baumannii CDC-0045 is less than 1 µg/mL.

`O=C(O)c1c(F)ccc2c1OB(O)[C@@H](NC(=O)[C@H](NC(=O)N1CCN(C3CCN(C(=O)Nc4cc(O)cc(F)c4)CC3)C1=O)c1cc(F)c(O)c(O)c1Cl)C2` (single isomer, unassigned) [Example 450]: the EC50 at A. baumannii PBP1a and at A. baumannii PBP2 was less than 10 µM each time. Moreover, the MIC in the assay with A. baumannii CDC-0036 was less than 1 µg/mL; with P. aeruginosa ATCC 27853, less than 1 µg/mL; in the assay on P. aeruginosa ATCC 35151 it was less than 1 µg/mL; in assay [1], 8 to 16 µg/mL (≈ 10.1 to 20.2 µM); in the assay on A. baumannii ATCC 19606, less than 1 µg/mL; in the assay on A. baumannii CDC-0033, less than 1 µg/mL. The MIC in the assay with A. baumannii CDC-0045 was less than 1 µg/mL.

Take `O=C(O)c1c(F)ccc2c1OB(O)[C@@H](NC(=O)[C@H](NC(=O)N1CCN(C3CCN(C(=O)Nc4cc(O)ccc4F)CC3)C1=O)c1cc(F)c(O)c(O)c1Cl)C2` (single isomer, unassigned) [Example 451]: the EC50 at A. baumannii PBP1a and at A. baumannii PBP2 was less than 10 µM each time. In addition, the MIC (in the assay with A. baumannii CDC-0036; in the assay on P. aeruginosa ATCC 27853; with P. aeruginosa ATCC 35151; in assay [1]; in the assay on A. baumannii ATCC 19606; in the assay on A. baumannii CDC-0033) was less than 1 µg/mL each time. Also, the MIC in the assay on A. baumannii CDC-0045 is less than 1 µg/mL.

With `O=C(O)c1c(F)ccc2c1OB(O)[C@@H](NC(=O)[C@H](NC(=O)N1CCN(C3CCN(C(=O)Nc4c(F)ccc(O)c4F)CC3)C1=O)c1cc(F)c(O)c(O)c1Cl)C2` (single isomer, unassigned) [Example 454], the EC50 on A. baumannii PBP1a and on A. baumannii PBP2 was less than 10 µM throughout. Further, the MIC in the assay with A. baumannii CDC-0036 is less than 1 µg/mL; in the assay with P. aeruginosa ATCC 27853 it was 2 to 4 µg/mL (≈ 2.47 to 4.95 µM); with P. aeruginosa ATCC 35151 it was less than 1 µg/mL; in assay [1], less than 1 µg/mL; in the assay on A. baumannii ATCC 19606, less than 1 µg/mL; in the assay on A. baumannii CDC-0033 it was 2 to 4 µg/mL (≈ 2.47 to 4.95 µM). Further, the MIC in the assay on A. baumannii CDC-0045 is less than 1 µg/mL.

`O=C(O)c1c(F)ccc2c1OB(O)[C@@H](NC(=O)[C@H](NC(=O)N1CCN(C3CCN(C(=O)Nc4c(F)ccc(O)c4Cl)CC3)C1=O)c1cc(F)c(O)c(O)c1Cl)C2` (single isomer, unassigned) [Example 455]: the EC50 at A. baumannii PBP1a and on A. baumannii PBP2 was less than 10 µM each time. In addition, the MIC (in the assay with A. baumannii CDC-0036; with P. aeruginosa ATCC 27853; with P. aeruginosa ATCC 35151; in assay [1]; with A. baumannii ATCC 19606; in the assay with A. baumannii CDC-0033) was less than 1 µg/mL in each case. Also, in the assay with A. baumannii CDC-0045, the MIC was less than 1 µg/mL.

As for `O=C(O)c1c(F)ccc2c1OB(O)[C@@H](NC(=O)[C@H](NC(=O)N1CCN(C3CCN(C(=O)c4ccc(O)cc4)CC3)C1=O)c1cc(F)c(O)c(O)c1Cl)C2` (single isomer, unassigned) [Example 463], the EC50 on A. baumannii PBP1a and on A. baumannii PBP2 was less than 10 µM each time. For the same compound, the MIC (in the assay with A. baumannii CDC-0036; with P. aeruginosa ATCC 27853; with P. aeruginosa ATCC 35151; in assay [1]; in the assay with A. baumannii ATCC 19606; in the assay on A. baumannii CDC-0033) was less than 1 µg/mL throughout. Also, in the assay on A. baumannii CDC-0045, the MIC is less than 1 µg/mL.
